We go through 12 compounds from patent publication US11236129B2, “IL-17A binding peptides and medical uses thereof” (Dompe' Farmaceutici S.P.A., priority 2018, dated 2022).

Like-named read-outs stand apart in the source and are kept apart here. Residues, ends and D or L forms follow the SMILES beside them.

A short description of data set [1]: Isoelectric point, log D and log P (SiriusT3). It is filed as physicochemical. The conditions noted are these: for IP (isoelectric point): 25±1° C., 0.15 M KCl; for Log D (7.4): pH 7.4. As for the experimental part:
The main physicochemical properties (Isoelectric point (IP), log D (7.4) and log P) of the peptides of Table 8 below were determined by using the SiriusT3 apparatus (Sirius Analytical Instruments Ltd., East Sussex, UK) equipped with an Ag/AgCl double junction reference pH electrode, a Sirius D-PAS spectrometer and a turbidity sensing device. […] An overhead stirrer was used and a temperature probe (Peltier controller) monitored the temperature during the course of the titration. The titration experiments were conducted in 0.15 M KCl Ionic Strength Adjusted solution (ISA water) under a nitrogen atmosphere at a temperature of 25±1° C. All tests were performed using standardized 0.5 M KOH and 0.5 M HCl as titration reagents, for the partition coefficient tests a saturated Octanol in ISA water (5% of ISA water) was used as partition solvent. The pKas were determined by potentiometric method by pH-metric titration. The powder (around 0.5 mg) was dissolved in 1.5 ml of ISA water and the titration was performed in triplicate in the pH range 2.0−12.0.

Data set [2] is classed as physicochemical. The conditions noted are these: pH 7.8. As to the method:
Each lyophilized peptide was weighed in an amber vial. A calculated volume of phosphate buffered solution at pH 7.8 was added in order to directly obtain 10 mM Stock Solutions. The recovered suspensions were stirred for 30 minutes by orbital shaker incubator at 37° C. Subsequent dilutions were performed to obtain the more diluted stock solutions for the less soluble compounds.
In order to evaluate the stability and the solubility, all the stock solutions were stored at 25° C. The title was evaluated by UHPLC-MS analysis in comparison with the standard solutions, at 3 time points: T0, 3 days, 1 week.
The chromatographic profile was evaluated for the quantitative assay while the MS spectra were detected as support in the stability studies.
Each peptide was weighed and directly diluted at 100 μM with the phosphate buffer at pH 7.8. The solutions were stirred for 5 minutes by vortex and heated at 37° C. for 20 minutes. The obtained standard solution was stored at 25° C. in the dark under controlled temperature.
A portion of the stock solutions was collected in an amber vial and diluted to 100 μM by phosphate buffer at pH 7.8 (dilution factor, 1:100).
Reversed-phase UHPLC was performed operating at a flow rate of 0.3 ml/min with a Luna Omega Polar C18 column ([…] 1.6 μm, 2.1×100 mm). Solvent A was 0.5% Formic Acid in water and solvent B was 0.5% Formic Acid in acetonitrile. First, samples were loaded onto the column and washed isocratically at 10% B for 3 min. Then, a gradient of 10-95% B was run over 22 min, held at 95% for 2 min, and then decreased to 10% over 1 min and held, for the pressure stabilization, for 5 min. UV Absorption was monitored by DAD (220-400 nm). ESI-MS ion trap was used for the monitoring of TIC.

The target of data set [3] is IL-17RA/IL17RC dimerization induced by IL-17A (Homo sapiens, UniProt Q16552). In words: IL-17RA/IL17RC dimerization assay in response to IL-17A (PathHunter Cytokine Receptor Assay). The class given is cell-based. The conditions noted are these: IL-17A at EC80; read-out: IC50 in IL-17RA/IL7RC dimerization assay. In outline: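 PathHunter cells with IL-17RA and IL-17RC tagged for β-galactosidase complementation were preincubated 60 min with peptide (1% vehicle). IL-17A was then added at EC80 for 6–16 h at 37 °C, and chemiluminescence was read. Inhibition is relative to the EC80 and vehicle controls.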
Chain of IL-17RA/IL17RC dimerization induced by IL-17A (Q16552 24-155): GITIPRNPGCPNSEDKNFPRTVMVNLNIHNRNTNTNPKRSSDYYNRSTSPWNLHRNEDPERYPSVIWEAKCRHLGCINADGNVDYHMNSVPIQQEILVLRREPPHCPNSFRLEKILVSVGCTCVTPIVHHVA

The logP is the decadic logarithm of the partition coefficient of the neutral form, usually between octanol and water. The solubility is the dissolved amount per volume that the medium holds. Low values mean a poorly soluble substance, high ones a readily soluble substance. As to `CC[C@H](C)[C@H](NC(C)=O)C(=O)N[C@@H](Cc1c[nH]cn1)C(=O)N[C@H](C(=O)N[C@H](C(=O)N[C@H](C(=O)N1CCC[C@H]1C(=O)N[C@@H](C)C(=O)N[C@@H](CC(=O)O)C(=O)N[C@@H](CC(C)C)C(=O)N[C@@H](Cc1ccc(O)cc1)C(=O)N[C@@H](CCC(=O)O)C(=O)N[C@@H](Cc1c[nH]c2ccccc12)C(=O)N[C@H](C(=O)N[C@@H](CC(N)=O)C(=O)N[C@@H](CCCCN)C(N)=O)[C@@H](C)CC)[C@@H](C)CC)[C@@H](C)O)C(C)C` [SEQ ID NO: 7] (Ac-IHVTIPADLYEWINK-NH2), in data set [1], the logP is given as −0.86, the “IP (isoelectric point)” value came out at 5.19 and the “Log D (7.4)” value is listed as −1.41. Also, the solubility in data set [2] was > 10 mM.
As to `CC[C@H](C)[C@H](NC(C)=O)C(=O)N[C@@H](Cc1c[nH]cn1)C(=O)N[C@H](C(=O)N[C@H](C(=O)N[C@H](C(=O)N1CCC[C@H]1C(=O)N[C@@H](C)C(=O)N[C@@H](CC(=O)O)C(=O)N[C@@H](CC(C)C)C(=O)N[C@@H](Cc1ccc(O)cc1)C(=O)N[C@@H](CCC(=O)O)C(=O)N[C@@H](Cc1c[nH]c2ccccc12)C(=O)N[C@H](C(=O)N[C@@H](CC(N)=O)C(=O)N[C@@H](CCCCN)C(N)=O)[C@@H](C)CC)[C@@H](C)CC)[C@@H](C)O)C(C)C` [SEQ ID NO: 13] (Ac-IHVTIPADLYEWINK-NH2), in data set [1], the logP was −0.49, the “IP (isoelectric point)” value came to 6.06 and the “Log D (7.4)” value stood at 1.15. In data set [2], the solubility was >10 mM.
Turning to `CC[C@H](C)[C@H](NC(=O)[C@H](Cc1c[nH]c2ccccc12)NC(=O)[C@H](CCC(=O)O)NC(=O)[C@H](Cc1ccc(O)cc1)NC(=O)[C@H](CC(C)C)NC(=O)[C@H](CC(=O)O)NC(=O)[C@H](C)NC(=O)[C@@H]1CCCN1C(=O)[C@@H](NC(=O)[C@@H](NC(=O)[C@@H](NC(=O)[C@H](CCSC)NC(=O)[C@@H](NC(=O)CNC(=O)[C@H](C)NC(=O)CNC(=O)[C@@H]1CCCN1C(=O)[C@@H](NC(=O)CNC(=O)[C@H](C)NC(=O)CNC(=O)[C@@H]1CCCN1C(=O)[C@@H](NC(C)=O)C(C)C)C(C)C)C(C)C)C(C)C)[C@@H](C)O)[C@@H](C)CC)C(=O)N[C@@H](CCC(=O)O)C(=O)N[C@@H](CCC(=O)O)C(N)=O` [SEQ ID NO: 38], the “IP (isoelectric point)” value in data set [1] was 5.14. Moreover, the logP in data set [1] (octanol/ISA water, read-out: logP) was -5.88. Moreover, the logD in data set [1] (pH 7.4, pH 7.4, octanol/ISA water, read-out: Log D (7.4)) was -3.46. Further, the solubility in data set [2] was > 10 mM.
Turning to `CC[C@H](C)[C@H](NC(C)=O)C(=O)N[C@@H](Cc1c[nH]cn1)C(=O)N[C@H](C(=O)N[C@H](C(=O)N[C@H](C(=O)N1CCC[C@H]1C(=O)N[C@@H](CC(C)C)C(=O)N[C@@H](CCC(=O)O)C(=O)N[C@H](C(=O)N[C@@H](Cc1ccccc1)C(=O)N[C@@H](CCC(=O)O)C(=O)N[C@@H](Cc1c[nH]c2ccccc12)C(=O)N[C@@H](CC(C)C)C(=O)N[C@@H](CCC(N)=O)C(=O)N[C@@H](Cc1c[nH]cn1)C(N)=O)C(C)C)[C@@H](C)CC)[C@@H](C)O)C(C)C` [SEQ ID NO: 249] (Ac-IHVTIPLEVFEWLQH-NH2), the IC50 in data set [3] is < 10 µM.
On the same count and under the same terms, in the case of `CC[C@H](C)[C@H](NC(C)=O)C(=O)N[C@@H](Cc1c[nH]cn1)C(=O)N[C@H](C(=O)N[C@H](C(=O)N[C@H](C(=O)N1CCC[C@H]1C(=O)NCC(=O)N[C@@H](CCC(=O)O)C(=O)N[C@H](C(=O)N[C@@H](Cc1ccccc1)C(=O)N[C@@H](CCC(=O)O)C(=O)N[C@@H](Cc1c[nH]c2ccccc12)C(=O)N[C@@H](CC(C)C)C(=O)N[C@@H](CCC(N)=O)C(=O)N[C@@H](Cc1c[nH]cn1)C(N)=O)[C@@H](C)CC)[C@@H](C)CC)[C@@H](C)O)C(C)C` [SEQ ID NO: 250] (Ac-IHVTIPGEIFEWLQH-NH2) it was < 10 µM; in that of `CC[C@H](C)[C@H](NC(=O)[C@H](CCC(=O)O)NC(=O)[C@H](CCC(N)=O)NC(=O)[C@@H]1CCCN1C(=O)[C@@H](NC(=O)[C@H](CO)NC(=O)[C@H](Cc1ccccc1)NC(=O)[C@H](CCCNC(=N)N)NC(=O)[C@@H](NC(C)=O)C(C)C)C(C)C)C(=O)N[C@@H](Cc1ccc(O)cc1)C(=O)N[C@@H](CCC(=O)O)C(=O)N[C@@H](Cc1c[nH]c2ccccc12)C(=O)N[C@H](C(=O)N[C@@H](CCCNC(=N)N)C(=O)N[C@@H](CCCNC(=N)N)C(N)=O)C(C)C` [SEQ ID NO: 251] (Ac-VRFSVPQEIYEWVRR-NH2), < 10 µM.
The same measure, in the same setting: in the case of `CC[C@H](C)[C@H](NC(=O)[C@H](CCC(=O)O)NC(=O)[C@H](CC(C)C)NC(=O)[C@@H]1CCCN1C(=O)[C@@H](NC(=O)[C@H](CO)NC(=O)[C@@H](NC(=O)[C@H](CCCNC(=N)N)NC(=O)[C@H](CC(C)C)NC(C)=O)[C@@H](C)CC)C(C)C)C(=O)N[C@@H](Cc1ccccc1)C(=O)N[C@@H](CCC(=O)O)C(=O)N[C@@H](Cc1c[nH]c2ccccc12)C(=O)N[C@@H](CC(C)C)C(=O)N[C@@H](CCC(N)=O)C(=O)N[C@@H](Cc1c[nH]cn1)C(N)=O` [SEQ ID NO: 252] (Ac-LRISVPLEIFEWLQH-NH2) it was < 10 µM; in that of `CC[C@H](C)[C@H](NC(=O)[C@H](CCC(=O)O)NC(=O)[C@H](CC(C)C)NC(=O)[C@@H]1CCCN1C(=O)[C@@H](NC(=O)[C@H](CO)NC(=O)CNC(=O)[C@H](CCCNC(=N)N)NC(=O)[C@H](CC(C)C)NC(C)=O)C(C)C)C(=O)N[C@@H](Cc1ccccc1)C(=O)N[C@@H](CCC(=O)O)C(=O)N[C@@H](Cc1c[nH]c2ccccc12)C(=O)N[C@@H](CC(C)C)C(=O)N[C@@H](CCC(N)=O)C(=O)N[C@@H](Cc1c[nH]cn1)C(N)=O` [SEQ ID NO: 253] (Ac-LRGSVPLEIFEWLQH-NH2), < 10 µM.
For the compound `CC[C@H](C)[C@H](NC(=O)[C@H](CCC(=O)O)NC(=O)[C@H](CC(C)C)NC(=O)[C@@H]1CCCN1C(=O)[C@@H](NC(=O)[C@H](CO)NC(=O)[C@@H](NC(=O)[C@H](CCCCN)NC(=O)[C@@H](NC(C)=O)C(C)C)[C@@H](C)CC)C(C)C)C(=O)N[C@@H](Cc1ccccc1)C(=O)N[C@@H](CCC(=O)O)C(=O)N[C@@H](Cc1c[nH]c2ccccc12)C(=O)N[C@@H](CC(C)C)C(=O)N[C@@H](CCC(N)=O)C(=O)N[C@@H](Cc1c[nH]cn1)C(N)=O` [SEQ ID NO: 254] (Ac-VKISVPLEIFEWLQH-NH2), the IC50 in data set [3] was < 10 µM.
On the same count and under the same terms, in the case of `CC(=O)N[C@H](C(=O)N[C@@H](CCC(=O)O)C(=O)N[C@@H](Cc1ccccc1)C(=O)N[C@@H](CC(N)=O)C(=O)N[C@@H](Cc1ccccc1)C(=O)N1CCC[C@H]1C(=O)N[C@@H](CCC(N)=O)C(=O)N[C@@H](CCC(N)=O)C(=O)N[C@H](C(=O)N[C@@H](Cc1ccc(O)cc1)C(=O)N[C@@H](CCC(=O)O)C(=O)N[C@@H](Cc1c[nH]c2ccccc12)C(=O)N[C@@H](Cc1ccccc1)C(=O)N[C@@H](CC(=O)O)C(=O)N[C@@H](CC(=O)O)C(N)=O)C(C)C)C(C)C` [SEQ ID NO: 255] (Ac-VEFNFPQQVYEWFDD-NH2) it was < 10 µM.
Still for that read-out and setting: in the case of `CC(=O)N[C@H](C(=O)N[C@@H](CCC(=O)O)C(=O)N[C@@H](Cc1ccccc1)C(=O)N[C@@H](CC(N)=O)C(=O)N[C@@H](Cc1ccccc1)C(=O)N1CCC[C@H]1C(=O)N[C@@H](CCC(N)=O)C(=O)N[C@@H](CCC(N)=O)C(=O)N[C@H](C(=O)N[C@@H](Cc1ccc(O)cc1)C(=O)N[C@@H](CCC(=O)O)C(=O)N[C@@H](Cc1c[nH]c2ccccc12)C(=O)N[C@H](C(=O)N[C@@H](CCCNC(=N)N)C(=O)N[C@@H](CCCNC(=N)N)C(N)=O)C(C)C)C(C)C)C(C)C` [SEQ ID NO: 256] (Ac-VEFNFPQQVYEWVRR-NH2) it was < 10 µM; in that of `CC(=O)N[C@H](C(=O)N[C@H](C(=O)N[C@H](C(=O)N[C@@H](Cc1ccc(O)cc1)C(=O)N[C@H](C(=O)N[C@@H](Cc1ccccc1)C(=O)N[C@@H](CC(N)=O)C(=O)N[C@@H](CCC(=O)O)C(=O)N[C@@H](CCC(N)=O)C(=O)N[C@@H](Cc1c[nH]cn1)C(=O)N[C@@H](CCC(N)=O)C(=O)N[C@@H](CCC(=O)O)C(=O)N[C@@H](Cc1ccc(O)cc1)C(=O)N[C@H](C(=O)N[C@@H](CCCNC(=N)N)C(=O)N[C@@H](CCCCN)C(N)=O)C(C)C)C(C)C)C(C)C)C(C)C)[C@@H](C)O` [SEQ ID NO: 257] (Ac-TVVYVFNEQHQEYVRK-NH2), < 10 µM.
